Values of other authors, collected in patent US7214387B2, “Sustained release formulations of metformin” (Penwest Pharmaceuticals Company, priority 2002, dated 2007).

System: serum lipids

## CN(C)C(=N)NC(=N)N [metformin, N,N-dimethylimidodicarbonimidicdiamide]
Clinical studies
  effects on other lipid levels: no adverse effects
Particularly when baseline lipid levels were abnormally elevated
  mean fasting serum triglycerides, total cholesterol, and LDL cholesterol levels: lowered
